Laboratory results taken from patent publication US20240101563A1, “NOVEL COMPOUNDS” (AC Immune SA, priority 2022, published 2024).
Structures can show the parent of a compound that is named as a salt. Where two headings read alike, the source gives them in different places.

Tested on: NLRP3 inflammasome pathway
Test: NLRP3 inflammasome pathway activation assay, MSU stimulation, IL-1β HTRF
Type: cell-based
Conditions: Table 7, PMA-differentiated, LPS-primed cells, MSU 200 μg/mL for 3 h, IL-1β release, read-out: IC50 Human monocyte-like cells MSU
Description: The following assays were used to determine the inhibitory activity of test compounds on the NLRP3 inflammasome pathway using common stimuli Nigericin (Invivogen) or monosodium urate crystals (MSU) (Invivogen).
Human monocyte-like cells were cultured in RPMI-1640 Glutamax medium supplemented with 10% heat inactivated FBS (Fetal Bovine Serum) and 50 U/mL penicillin-streptomycin (Life Technologies).
Human monocyte-like cells were seeded at 25000 per well in a 384-well plate and were differentiated overnight into macrophages with 10 ng/mL PMA (Phorbol Myristate Acetate). The following day, medium containing 10 ng/mL LPS (Lipopolysaccharide) was added. After 3 hours of LPS priming, concentrations of test compound in the range from […] were added 30 min prior to NLRP3 inflammasome pathway stimulation with Nigericin 3.75 μM or MSU 200 μg/mL for 3 h.
For IL-1p quantification, supernatants were analyzed using HTRF kit according to the manufacturer's instructions (Cisbio 62HIL1BPEH). Briefly, in a 384-well ProxiPlate™ microplate, 8 μl of sample was mixed, with 5 μl of Anti-IL1β Cryptate antibody (40×) and Anti-IL1β XL antibody (40×). Then, incubated overnight at RT. Reading was done using an EnVision Reader (PerkinElmer).
IC50 (concentration corresponding to 50% inhibition) were determined using GraphPad Prism 9.

| SMILES | IC50 (Homo sapiens, 3 h) [nM] | IC50 [nM] |
| --- | --- | --- |
| Oc1cc(C(F)(F)F)ccc1-n1cc2ccc(OC(F)(F)F)nc2n1 [Example 45, 2-[6-(trifluoromethoxy)pyrazolo[3,4-b]pyridin-2-yl]-5-(trifluoromethyl)phenol] | 100 to 1000 | – |
| Cc1cc(Cl)cc(O)c1-c1nc2nc(C(F)(F)F)ccc2n1C [Examples 50] | 100 to 1000 | – |
| Cc1cc(C(F)(F)F)cc(O)c1-c1nc2nc(NC3CCN(C)C3)ccc2n1C (single isomer, unassigned) [Example 18B, 3-methyl-2-(1-methyl-5-((1-methylpyrrolidin-3-yl)amino)-1H-imidazo[4,5-b]pyridin-2-yl)-5-(trifluoromethyl)phenol] | – | 100 to 1000 |
| COc1nc2nc(-c3c(C)cc(C(F)(F)F)cc3O)n(C)c2cc1CO [Example 52, 2-(6-(hydroxymethyl)-5-methoxy-1-methyl-1H-imidazo[4,5-b]pyridin-2-yl)-3-methyl-5-(trifluoromethyl)phenol] | < 100 | – |
| CN1CCC[C@@H](Nc2ccc3cn(-c4ccc(C(F)(F)F)cc4O)nc3n2)C1 [Example 40, (R)-2-(6-((1-methylpiperidin-3-yl)amino)-2H-pyrazolo[3,4-b]pyridin-2-yl)-5-(trifluoromethyl)phenol formate] | < 100 | – |
| Cn1c(-c2ccc(C(F)(F)F)cc2O)nc2nc(NCC(C)(C)O)ccc21 [Example 5, 2-(5-((2-hydroxy-2-methylpropyl)amino)-1-methyl-1H-imidazo[4,5-b]pyridin-2-yl)-5-(trifluoromethyl)phenol] | 100 to 1000 | – |
| Cc1cc(C(F)(F)F)cc(O)c1-c1nc2nc(N3CC(C)(O)C3)cnc2n1C [Example 84, 1-(2-(2-hydroxy-6-methyl-4-(trifluoromethyl)phenyl)-1-methyl-1H-imidazo[4,5-b]pyrazin-5-yl)-3-methylazetidin-3-ol] | 100 to 1000 | – |
| COc1nc2nc(-c3c(C)cc(C(F)(F)F)cc3O)n(C)c2nc1CO [Example 65, 2-(6-(hydroxymethyl)-5-methoxy-1-methyl-1H-imidazo[4,5-b]pyrazin-2-yl)-3-methyl-5-(trifluoromethyl)phenol] | < 100 | – |
| Cc1cc(F)cc(O)c1-c1nc2nc(N(C)[C@@H]3CCN(C)C3)cnc2n1C [Example 74, (R)-5-fluoro-3-methyl-2-(1-methyl-5-(methyl(1-methylpyrrolidin-3-yl)amino)-1H-imidazo[4,5-b]pyrazin-2-yl)phenol] | < 100 | – |
| Cn1c(-c2ccc(C(F)(F)F)cc2O)nc2nc(NC3COC3)ccc21 [Example 7, 2-(1-methyl-5-(oxetan-3-ylamino)-1H-imidazo[4,5-b]pyridin-2-yl)-5-(trifluoromethyl)phenol] | 100 to 1000 | – |
| Cc1cc(Cl)cc(O)c1-c1nc2nc(N[C@@H]3CCN(C)C3)c(F)cc2n1C [Example 47, (R)-5-chloro-2-(6-fluoro-1-methyl-5-((1-methylpyrrolidin-3-yl)amino)-1H-imidazo[4,5-b]pyridin-2-yl)-3-methylphenol formate Salt] | < 100 | – |
| Cn1c(-c2ccc(C(F)(F)F)cc2O)nc2nc(O[C@H]3CC[C@H](O)C3)ccc21 (single isomer, unassigned) [Example 37A, trans-2-(5-((3-hydroxycyclopentyl)oxy)-1-methyl-1H-imidazo[4,5-b]pyridin-2-yl)-5-(trifluoromethyl)phenol] | 100 to 1000 | – |
| CNc1ccc2c(n1)nc(-c1ccc(C(F)(F)F)cc1O)n2C [Example 4, 2-(1-methyl-5-(methylamino)-1H-imidazo[4,5-b]pyridin-2-yl)-5-(trifluoromethyl)phenol] | 100 to 1000 | – |
| CC(C)n1c(-c2ccc(C(F)(F)F)cc2O)nc2nc(NC3CCN(C)C3)ccc21 (single isomer, unassigned) [Example 10A, 2-(1-isopropyl-5-((1-methylpyrrolidin-3-yl)amino)-1H-imidazo[4,5-b]pyridin-2-yl)-5-(trifluoromethyl)phenol] | 100 to 1000 | – |
